Key:
Format in all cases: cell-based
[1] = tested on: MDA-MB-231 (breast cancer); assay: MTT antiproliferative assay, MDA-MB-231; conditions: Homo sapiens, MDA-MB-231, 10 μM, 48 or 72 h, read-out: inhibition of cell growth, MDA-MB-231
Experimental: (§1) The antiproliferative activity of a test compound was determined in cell lines: MDA-MB-231 (breast cancer), HepG2 (liver cancer), SW620 (colon cancer), A375 (malignant melanoma), A431 (epidermoid carcinoma), A549 (lung adenocarcinoma), and HeLa ([…]). MDA-MB-231, HepG2, SW480, SW620, A375, and A431 cells were cultured in Dulbecco's modified Eagle's medium (DMEM) containing 10% fetal bovine serum (FBS). HeLa cells were cultured in MEM/EBSS (MEM) containing 10% FBS. A549 cells were maintained in Kaighn's modification of Ham's F-12 medium containing 10% FBS. The colorimetric MTT (3-(4,5-dimethylthiazol-2-yl)-2,5-diphenyltetrazolium bromide) assay was used to measure the cell viability of different cells following treatment with the test compound.
(§2) Briefly cells were seeded in a 96 well plate at a density of 2,000-5,000 cells/well. Following attachment, the cells were treated with the test compound in media at various concentrations ranging from 0.137 to 100 μM or at a single concentration of 10 μM. After the cells were incubated at 37° C. for 48 or 72 h, MTT (20 μL, 5 mg/mL in PBS) was added to each well and the cells were incubated for another 4 h at 37° C. The supernatant was removed carefully and 150 μL of DMSO was added to each well to dissolve the MTT formazan crystals. The plate was shaken for 15-20 min and the absorbance value of each well was determined using a multi-well plate reader at 490 nm. The wells treated with DMSO were taken as a vehicle control. Data were also obtained similarly for all the replicates and the percentage viability was determined with respect to the DMSO-treated cells. The results are summarized in Table 1 below, wherein A represents no less than 80% inhibition of cell growth at 10 μM; B represents no less than 50% but less than 80% inhibition of cell growth at 10 μM; C represents no less than 30% but less than 50% inhibition of cell growth at 10 μM; and D represents less than 30% inhibition of cell growth at 10 μM.

[2] = tested on: HeLa (ovarian cancer); assay: MTT antiproliferative assay, HeLa; conditions: Homo sapiens, 48 or 72 h, read-out: inhibition of cell growth, HELA
Experimental: as §1, §2

[3] = tested on: SW620 (colon cancer); assay: MTT antiproliferative assay, SW620; conditions: Homo sapiens, SW-620, SW620, 10 μM, 48 or 72 h, read-out: inhibition of cell growth, SW620
Experimental: as §1, §2

[4] = tested on: A549 (lung adenocarcinoma); assay: MTT antiproliferative assay, A549; conditions: Homo sapiens, A549, 10 μM, 48 or 72 h, read-out: inhibition of cell growth, A549
Experimental: as §1, §2

[5] = tested on: A431 (epidermoid carcinoma); assay: MTT antiproliferative assay, A431; conditions: Homo sapiens, A-431, A431, 10 μM, 48 or 72 h, read-out: inhibition of cell growth, A431
Experimental: as §1, §2

[6] = tested on: A375 (malignant melanoma); assay: MTT antiproliferative assay, A375; conditions: Homo sapiens, A-375, A375, 10 μM, 48 or 72 h, read-out: inhibition of cell growth, A375
Experimental: as §1, §2

[7] = tested on: HepG2 (liver cancer); assay: MTT antiproliferative assay, HepG2; conditions: Homo sapiens, HepG2, 10 μM, 48 or 72 h, read-out: inhibition of cell growth, HepG2
Experimental: as §1, §2

Row | SMILES | inhibition at 10 µM [1] | inhibition at 10 µM [2] | inhibition at 10 µM [3] | inhibition at 10 µM [4] | inhibition at 10 µM [5] | inhibition at 10 µM [6] | inhibition at 10 µM [7]
1 | CO[C@@]1(C)C2=CC=C3[C@@](C)(CC[C@@]4(C)[C@@H]5C[C@](C)(C(=O)O)CC[C@]5(C)CC[C@]34C)C2=CC(=O)[C@@H]1O [Compound A15, (2R,4aS,6aS,9S,10R,12bR,14aS,14bR)-10-hydroxy-9-methoxy-2,4a,6a,9,12b,14a-hexamethyl-11-oxo-1,2,3,4,4a,5,6,6a,9,10,11,12b,13,14,14a,14b-hexadecahydropicene-2-carboxylic acid] | ≥ 80% | 50 to 80% | 30 to 50% | < 30% | 50 to 80% | 50 to 80% | 30 to 50%
2 | CO[C@@]1(C)C2=CC=C3[C@@](C)(CC[C@@]4(C)[C@@H]5C[C@](C)(C(=O)OCc6ccccc6)CC[C@]5(C)CC[C@]34C)C2=CC(=O)[C@@H]1O [Compound A16, benzyl (2R,4aS,6aS,9S,10R,12bR,14aS,14bR)-10-hydroxy-9-methoxy-2,4a,6a,9,12b,14a-hexamethyl-11-oxo-1,2,3,4,4a,5,6,6a,9,10,11,12b,13,14,14a,14b-hexadecahydropicene-2-carboxylate] | ≥ 80% | ≥ 80% | ≥ 80% | ≥ 80% | ≥ 80% | 50 to 80% | ≥ 80%
3 | CNC(=O)[C@]1(C)CC[C@]2(C)CC[C@]3(C)C4=CC=C5C(=CC(=O)[C@H](O)[C@@]5(C)OC)[C@]4(C)CC[C@@]3(C)[C@@H]2C1 [Compound A17, (2R,4aS,6aS,9S,10R,12bR,14aS,14bR)-10-hydroxy-9-methoxy-N,2,4a,6a,9,12b,14a-heptamethyl-11-oxo-1,2,3,4,4a,5,6,6a,9,10,11,12b,13,14,14a,14b-hexadecahydropicene-2-carboxamide] | ≥ 80% | 50 to 80% | ≥ 80% | 30 to 50% | ≥ 80% | 50 to 80% | ≥ 80%
4 | CO[C@@]1(C)C2=CC=C3[C@@](C)(CC[C@@]4(C)[C@@H]5C[C@](C)(CO)CC[C@]5(C)CC[C@]34C)C2=CC(=O)[C@@H]1O [Compound A18, (3R,4S,6bS,8aS,11R,12aR,12bS,14aR)-3-hydroxy-11-(hydroxymethyl)-4-methoxy-4,6b,8a,11,12b,14a-hexamethyl-2,3,4,6b,7,8,8a,9,10,11,12,12a,12b,13,14,14a-hexadecahydropicen-2-one] | ≥ 80% | ≥ 80% | ≥ 80% | 30 to 50% | ≥ 80% | 50 to 80% | ≥ 80%
5 | CO[C@@]1(C)C2=CC=C3[C@@](C)(CC[C@@]4(C)[C@@H]5C[C@](C)(C=O)CC[C@]5(C)CC[C@]34C)C2=CC(=O)[C@@H]1O [Compound A19, (2R,4aS,6aS,9S,10R,12bR,14aS,14bR)-10-hydroxy-9-methoxy-2,4a,6a,9,12b,14a-hexamethyl-11-oxo-1,2,3,4,4a,5,6,6a,9,10,11,12b,13,14,14a,14b-hexadecahydropicene-2-carbaldehyde] | 50 to 80% | ≥ 80% | 50 to 80% | 50 to 80% | ≥ 80% | 30 to 50% | 50 to 80%
6 | COC(=O)[C@]1(C)CC[C@]2(C)CC[C@]3(C)C4=CC=C5C(=CC(=O)[C@H](O)[C@@]5(C)OC)[C@]4(C)CC[C@@]3(C)[C@@H]2C1 [Compound A20, methyl (2R,4aS,6aS,9S,10R,12bR,14aS,14bR)-10-hydroxy-9-methoxy-2,4a,6a,9,12b,14a-hexamethyl-11-oxo-1,2,3,4,4a,5,6,6a,9,10,11,12b,13,14,14a,14b-hexadecahydropicene-2-carboxylate] | ≥ 80% | ≥ 80% | ≥ 80% | ≥ 80% | ≥ 80% | 50 to 80% | ≥ 80%
7 | CO[C@@]1(C)C2CCC3[C@@](C)(CC[C@@]4(C)[C@@H]5C[C@](C)(C(=O)O)CC[C@]5(C)CC[C@]34C)C2=CC(=O)[C@@H]1O (stereo partly drawn) [Compound A21, (2R,4aS,6aR,9S,10R,12bR,14aS,14bR)-10-hydroxy-9-methoxy-2,4a,6a,9,12b,14a-hexamethyl-11-oxo-1,2,3,4,4a,5,6,6a,6b,7,8,8a,9,10,11,12b,13,14,14a,14b-icosahydropicene-2-carboxylic acid] | < 30% | < 30% | < 30% | < 30% | < 30% | < 30% | < 30%
8 | CCCC(=O)O[C@H]1C(=O)C=C2C(=CC=C3[C@@]2(C)CC[C@@]2(C)[C@@H]4C[C@](C)(C(=O)NC)CC[C@]4(C)CC[C@]32C)[C@]1(C)OC [Compound A23, (3R,4S,6bS,8aS,11R,12aR,12bS,14aR)-4-methoxy-4,6b,8a,11,12b,14a-hexamethyl-11-(methylcarbamoyl)-2-oxo-2,3,4,6b,7,8,8a,9,10,11,12,12a,12b,13,14,14a-hexadecahydropicen-3-yl butyrate] | ≥ 80% | ≥ 80% | ≥ 80% | ≥ 80% | ≥ 80% | 50 to 80% | ≥ 80%
9 | CCCC(=O)O[C@H]1C(O)C=C2C(=CC=C3[C@@]2(C)CC[C@@]2(C)[C@@H]4C[C@](C)(C(=O)OC)CC[C@]4(C)CC[C@]32C)[C@]1(C)OC (stereo partly drawn) [Compound A25, methyl (2R,4aS,6aS,9S,10S,12bR,14aS,14bR)-10-(butyryloxy)-11-hydroxy-9-methoxy-2,4a,6a,9,12b,14a-hexamethyl-1,2,3,4,4a,5,6,6a,9,10,11,12b,13,14,14a,14b-hexadecahydropicene-2-carboxylate] | < 30% | < 30% | < 30% | < 30% | < 30% | < 30% | < 30%
10 | CNC1(O)C(=O)C=C2C(=CC=C3[C@@]2(C)CC[C@@]2(C)[C@@H]4C[C@](C)(C(=O)OC)CC[C@]4(C)CC[C@]32C)[C@]1(C)OC (stereo partly drawn) [Compound A26, methyl (2R,4aS,6aS,9S,12bR,14aS,14bR)-10-hydroxy-9-methoxy-2,4a,6a,9,12b,14a-hexamethyl-10-(methylamino)-11-oxo-1,2,3,4,4a,5,6,6a,9,10,11,12b,13,14,14a,14b-hexadecahydropicene-2-carboxylate] | 30 to 50% | 30 to 50% | 30 to 50% | < 30% | 30 to 50% | 30 to 50% | 30 to 50%
11 | CCO[C@]1(C)C(=O)C(=O)C=C2C1=CC=C1[C@@]2(C)CC[C@@]2(C)[C@@H]3C[C@](C)(C(=O)O)CC[C@]3(C)CC[C@]12C [Compound A28, (2R,4aS,6aS,9S,12bR,14aS,14bR)-9-ethoxy-2,4a,6a,9,12b,14a-hexamethyl-10,11-dioxo-1,2,3,4,4a,5,6,6a,9,10,11,12b,13,14,14a,14b-hexadecahydropicene-2-carboxylic acid] | 50 to 80% | ≥ 80% | 30 to 50% | 30 to 50% | 50 to 80% | 30 to 50% | 50 to 80%
12 | CO[C@@]1(C)C2=CC=C3[C@@](C)(CC[C@@]4(C)[C@@H]5C[C@](C)(C(=O)O)CC[C@]5(C)CC[C@]34C)C2=CC(O)C1O (stereo partly drawn) [Compound A29, (2R,4aS,6aS,9S,12bR,14aS,14bR)-10,11-dihydroxy-9-methoxy-2,4a,6a,9,12b,14a-hexamethyl-1,2,3,4,4a,5,6,6a,9,10,11,12b,13,14,14a,14b-hexadecahydropicene-2-carboxylic acid] | < 30% | 50 to 80% | < 30% | < 30% | < 30% | < 30% | < 30%
